Patent US20230123334A1, “AMINO LIPID COMPOUND, PREPARATION METHOD THEREFOR, AND APPLICATION THEREOF” (SHENZHEN SHENXIN BIOTECHNOLOGY CO., LTD., priority 2020, published 2023)

test system: HEK293 cells; test: Preliminary screening as DNA vectors, GFP transfection of HEK293 cells; assay type: cell-based; conditions: HEK293 cells; lipid/DOPE liposome with 75 ng plasmid DNA (psin-EGFP-IRES-Puro); number of cells expressing GFP divided by total number of nuclei (Hoechst)
Procedure, shortened: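 HEK293 cells in DMEM/10% FBS transfected with 75 ng EGFP plasmid per well complexed with amino lipid/DOPE liposomes in pH 5.6 sodium acetate. Hoechst nuclear stain added 20-24 h post-transfection, then cells cultured another 20-24 h. Confocal imaging gives GFP-positive cells as % of total nuclei.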

| SMILES | Absolute DNA transfection efficiency in HEK293 cells [%] |
| --- | --- |
| CCCCCCCCCCCCCCCCSc1nc(NCCN2CCCC2)nc(SCCCCCCCCCC)n1 [Compound S10S16D3] | 9.5 |
| CCCCCCCCCCCCCNc1nc(NCCN2CCCC2)nc(N(CCCCCCCCCCCC)CCCCCCCCCCCC)n1 [N13^2N12D3] | 0.6 |
| CCCCCCCCCCSc1nc(NCCN2CCN(C)CC2)nc(SCCCCCCCCC)n1 [Compound S9S10D5] | 27.6 |
| CCCCCCCCCCCCCCCCCCNc1nc(NCCCCCCCCC)nc(NCCCN2CCOCC2)n1 [Compound N9N18D8] | 1.4 |
| CCCCCCCCCSc1nc(NCCN2CCCC2)nc(SCCCCCCCCC)n1 [Compound S9S9D3] | 11.9 |
| CCCCCCCCCCCCCCCSc1nc(NCCN(C)C)nc(SCCCCCCCCCCCC)n1 [Compound S12S15D1] | 0.8 |
| CCCCCCCCCCCCCCCCNc1nc(NCCCCCCCCCCCCC)nc(NCCN(C)C)n1 [Compound N13N16D1] | 0.8 |
| CCCCCCCCCCCCNc1nc(NCCN2CCCC2)nc(N(CCCCCCCCCCCC)CCCCCCCCCCCC)n1 [N12^2N12D3] | 3.2 |

test system: HEK293 cells; test: Preliminary screening as mRNA vectors, EGFP mRNA transfection of HEK293 cells; assay type: cell-based; conditions: EGFP mRNA 50 ng per well, 96-well plates; percentage of GFP fluorescent cells relative to total number of cells (Hoechst)
Procedure, shortened: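 HEK293 cells in DMEM plus 10% FBS transfected in 96-well format with 50 ng EGFP mRNA per well; Lipofectamine2000 served as positive control. Read-out is the percentage of GFP-fluorescent cells among total cells, counted by Hoechst nuclear stain.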

| SMILES | Absolute mRNA transfection efficiency in HEK293 cells [%] |
| --- | --- |
| CCCCCCCCCCCCCCCNc1nc(NCCN2CCCC2)nc(SCCCCCCCCCCCCCCC)n1 [Compound D3S15N15] | 2.6 |
| CCCCCCCCCCSc1nc(NCCCCCCCC)nc(NCCN(CC)CC)n1 [Compound D7S10N8] | 0.3 |
| CCCCCCCCCCCCSc1nc(NCCN2CCCC2)nc(SCCCCCCCC)n1 [Compound D3S8S12] | 3.5 |
| CCCCCCCCCNc1nc(NCCN(CC)CC)nc(SCCCCCC)n1 [Compound D7S6N9] | 2.4 |
| CCCCCCCCCCCCCCSc1nc(NCCCCCCCCC)nc(NCCN(C)C)n1 [Compound D1S14N9] | 39.0 |
| CCCCCCCCCCCCCCCCCCSc1nc(NCCCN2CCOCC2)nc(SCCCCCCC)n1 [Compound D8S7S18] | 26.7 |
| CCCCCCCCCCCCCNc1nc(NCCN(C)C)nc(SCCCCCCCCCCCC)n1 [Compound D1S12N13] | 1.2 |
| CCCCCCCCCCCCCCCNc1nc(NCCN2CCCC2)nc(SCCCCCCCCCCCCCC)n1 [Compound D3S14N15] | 3.6 |
| CCCCCCCCCCCCCCCCCCSc1nc(NCCCCCC)nc(NCCN(CC)CC)n1 [Compound D7S18N6] | 19.5 |
| CCCCCCCCCCCCCCCCCCSc1nc(NCCCCCCCCCCCCCCC)nc(NCCN2CCOCC2)n1 [Compound D2S18N15] | 0.0 |
| CCCCCCCCCSc1nc(NCCCCCCCC)nc(NCCCN2CCN(C)CC2)n1 [Compound D9S9N8] | 9.2 |
| CCCCCCCCCCCSc1nc(NCCCCCCC)nc(NCCN2CCOCC2)n1 [Compound D2S11N7] | 8.5 |
| CCCCCCCCCCCCCCCCSc1nc(NCCN2CCOCC2)nc(N(CCCCCCCCCCCC)CCCCCCCCCCCC)n1 [D2S16^2N12] | 0.7 |
| CCCCCCCCCCCCCCCSc1nc(NCCCN2CCOCC2)nc(SCCCCCC)n1 [Compound D8S6S15] | 2.8 |
| CCCCCCCCCCSc1nc(NCCN2CCN(C)CC2)nc(SCCCCCCC)n1 [Compound D5S7S10] | 12.2 |
| CCCCCCCSc1nc(NCCCCCC)nc(NCCN2CCCCC2)n1 [Compound D4S7N6] | 4.5 |
| CCCCCCCCCCCCCCCSc1nc(NCCN2CCCCC2)nc(SCCCCCCC)n1 [Compound D4S7S15] | 6.7 |
| CCCCCCCCCCCCCCCCCCNc1nc(NCCN2CCCCC2)nc(SCCCCCCCC)n1 [Compound D4S8N18] | 3.5 |
| CCCCCCCCCCCNc1nc(NCCN(CC)CC)nc(SCCCCCCC)n1 [Compound D7S7N11] | 11.1 |
| CCCCCCCCCCCCCCCNc1nc(NCCCN2CCN(C)CC2)nc(SCCCCCCCCCCCC)n1 [Compound D9S12N15] | 0.0 |
| CCCCCCCCCCCCSc1nc(NCCCCCC)nc(NCCN2CCCC2)n1 [Compound D3S12N6] | 0.0 |
| CCCCCCCCCCCCCNc1nc(NCCN2CCCCC2)nc(SCCCCCCCCCCC)n1 [Compound D4S11N13] | 15.4 |
| CCCCCCCCCCCCCCCCCCNc1nc(NCCN2CCCC2)nc(SCCCCCC)n1 [Compound D3S6N18] | 32.5 |
| CCCCCCCCCCCCCNc1nc(NCCN2CCCCC2)nc(SCCCCCCCCCC)n1 [Compound D4S10N13] | 0.3 |
| CCCCCCCCCCCCSc1nc(NCCCCCCC)nc(NCCN2CCCC2)n1 [Compound D3S12N7] | 9.2 |
| CCCCCCCCCCCCCCCCSc1nc(NCCN2CCCC2)nc(SCCCCCC)n1 [Compound D3S6S16] | 16.9 |
| CCCCCCCCCCCCCNc1nc(NCC2CCN(C)CC2)nc(SCCCCCCCCCC)n1 [Compound D10S10N13] | 8.5 |

| SMILES | Absolute mRNA transfection efficiency in HEK293 cells [%] |
| --- | --- |
| CCCCCCCCCCCNc1nc(NCCN2CCCC2)nc(SCCCCCCC)n1 [Compound D3S7N11] | 9.6 |
| CCCCCCCCCCCCCCCCCCNc1nc(NCCN2CCCC2)nc(SCCCCCCCC)n1 [Compound D3S8N18] | 28.6 |
| CCCCCCCCCCCCCCCCNc1nc(NCCCN2CCOCC2)nc(SCCCCCCC)n1 [Compound D8S7N16] | 1.2 |
| CCCCCCCCNc1nc(NCCN2CCOCC2)nc(SCCCCCCC)n1 [Compound D2S7N8] | 1.0 |
| CCCCCCCCCCCCCCCCSc1nc(NCCCCCCC)nc(NCCN2CCCC2)n1 [Compound D3S16N7] | 85.0 |
| CCCCCCSc1nc(NCCN2CCN(C)CC2)nc(SCCCCCC)n1 [Compound D5S6S6] | 4.3 |
| CCCCCCCCCCCSc1nc(NCCCN2CCN(C)CC2)nc(SCCCCCCCC)n1 [Compound D9S8S11] | 97.6 |
| CCCCCCCCCSc1nc(NCCCCCCCC)nc(NCCCN2CCOCC2)n1 [Compound D8S9N8] | 5.7 |
| CCCCCCCCCCCCN(CCCCCCCCCCCC)c1nc(NCCN2CCCCC2)nc(SCCCCCCCCCCC)n1 [D4S11^2N12] | 0.5 |
| CCCCCCCCCCCCN(CCCCCCCCCCCC)c1nc(NCCN2CCCC2)nc(SCCCCCCCC)n1 [D3S8^2N12] | 0.9 |
| CCCCCCCCSc1nc(NCCCCCC)nc(NCCN(C)C)n1 [Compound D1S8N6] | 2.4 |
| CCCCCCCCCCCCCCCCCCSc1nc(NCC2CCN(C)CC2)nc(SCCCCCC)n1 [Compound D10S6S18] | 72.8 |
| CCCCCCCCCCCCCCSc1nc(NCCN(C)C)nc(SCCCCCCC)n1 [Compound D1S7S14] | 3.1 |
| CCCCCCCCCCCNc1nc(NCCCN2CCN(C)CC2)nc(SCCCCCCCC)n1 [Compound D9S8N11] | 81.7 |
| CCCCCCCCCCSc1nc(NCCCCCC)nc(NCCN(C)C)n1 [Compound D1S10N6] | 0.4 |
| CCCCCCCCCCCCCCCCNc1nc(NCCN(C)C)nc(SCCCCCCCC)n1 [Compound D1S8N16] | 22.5 |
| CCCCCCCCCCCCCCCCNc1nc(NCCN2CCCCC2)nc(SCCCCCCCCCCCCCCC)n1 [Compound D4S15N16] | 4.8 |
| CCCCCCCCCCCSc1nc(NCCCCCCC)nc(NCCN(C)C)n1 [Compound D1S11N7] | 11.7 |
| CCCCCCCCNc1nc(NCCN2CCN(C)CC2)nc(SCCCCCC)n1 [Compound D5S6N8] | 5.9 |
| CCCCCCCCCCCCCCCSc1nc(NCCN2CCCC2)nc(SCCCCCCC)n1 [Compound D3S7S15] | 12.0 |
| CCCCCCCCCCCSc1nc(NCCCCCCCC)nc(NCCN2CCOCC2)n1 [Compound D2S11N8] | 2.4 |
| CCCCCCCCCCSc1nc(NCCN2CCN(C)CC2)nc(SCCCCCC)n1 [Compound D5S6S10] | 10.1 |
| CCCCCCCCCCCCCCCCCCNc1nc(NCCN(C)C)nc(SCCCCCCCCCCC)n1 [Compound D1S11N18] | 15.4 |
| CCCCCCCCCCCCCCSc1nc(NCCCCCCCCC)nc(NCCCN2CCN(C)CC2)n1 [Compound D9S14N9] | 23.7 |
| CCCCCCCCCCCCCCSc1nc(NCCCCCCC)nc(NCCCN(C)C)n1 [Compound D6S14N7] | 90.8 |
| CCCCCCCCCCCNc1nc(NCCCN(C)C)nc(SCCCCCCCCCC)n1 [Compound D6S10N11] | 10.0 |
| CCCCCCCCCSc1nc(NCCCCCC)nc(NCCN(C)C)n1 [Compound D1S9N6] | 1.1 |

same assay, conditions: HEK293 cells, 96-well plates, EGFP mRNA 50 ng per well; percentage of GFP fluorescent cells relative to total number of cells (Hoechst)

| SMILES | Absolute mRNA transfection efficiency in HEK293 cells [%] |
| --- | --- |
| CCCCCCCCCCCCCCCCSc1nc(NCCN2CCCC2)nc(SCCCCCCCCCC)n1 [Compound S10S16D3] | 1.7 |
| CCCCCCCCCCCCCNc1nc(NCCN2CCCC2)nc(N(CCCCCCCCCCCC)CCCCCCCCCCCC)n1 [N13^2N12D3] | 7.3 |
| CCCCCCCCCCSc1nc(NCCN2CCN(C)CC2)nc(SCCCCCCCCC)n1 [Compound S9S10D5] | 61.4 |
| CCCCCCCCCCCCCCCCCCNc1nc(NCCCCCCCCC)nc(NCCCN2CCOCC2)n1 [Compound N9N18D8] | 0.3 |
| CCCCCCCCCSc1nc(NCCN2CCCC2)nc(SCCCCCCCCC)n1 [Compound S9S9D3] | 4.5 |
| CCCCCCCCCCCCCCCSc1nc(NCCN(C)C)nc(SCCCCCCCCCCCC)n1 [Compound S12S15D1] | 4.1 |
| CCCCCCCCCCCCCCCCNc1nc(NCCCCCCCCCCCCC)nc(NCCN(C)C)n1 [Compound N13N16D1] | 1.5 |
| CCCCCCCCCCCCNc1nc(NCCN2CCCC2)nc(N(CCCCCCCCCCCC)CCCCCCCCCCCC)n1 [N12^2N12D3] | 5.8 |
